Common to all, as to assay type: in vivo
One experiment has as its system mice. The experiment is described as follows: Light and dark box test in mice. The conditions noted are these: 2.0 mg/kg oral, 60 min after dose, 5 min test; n = 10, x ± SD. Here is the method: The positive control drug was diazepam. 60 minutes after oral administration, the light and dark box test was implemented. Each mouse is tested for 5 minutes, and each residence time in the light box and the number of shuttles between the light and dark boxes are recorded.

Experiment [1] concerns Kunming mice. As to the kind of experiment: Mouse tail hanging test. The conditions noted are these: 50 mg/kg/d oral, 14 days, 1 h after last dose; n=10, x ± SD. Here is the method: Kunming mice (male, 18-20 g) were randomly divided into 14 groups, each with 10 rats. […] The positive control group was venlafaxine. Continuous administered for 14 days, one time per day. One hour after the last oral administration, the mouse tail hanging test was carried out. The tails of the mice were glued on a wooden bar 50 cm above the table top to make them stand upside down, and the mouse sight was isolated using plates around. The mice would struggle to overcome the abnormal posture, but appear immobile after a period of activity, showing state of despair Duration was 6 minutes, the time of immobility within 6 minutes was recorded.

In experiment [2] the test system is Kunming mice. As to the kind of experiment: Mouse swimming test. Conditions: 50 mg/kg/d oral, 14 days, 1 h after last dose; n=10, x ± SD. How it is done: Kunming mice (male, 18-20 g) were randomly divided into 12 groups, each with 10 rats. Each group was given the corresponding dose of extract as shown in Table 4 and normal saline was used as control. The positive control group was venlafaxine. Continuous administered for 14 days, one time per day. One hour after the last oral administration, the mice were placed into a glass tank of 10×20 cm and water depth of 10 cm (water temperature 25° C.) for a swimming test. The swimming duration was 6 minutes, the time to stop motion within 5 minutes was recorded.

The test system of the next experiment is Wistar rats. As to the kind of experiment: Rat learned helplessness test (conditional avoidance). Here is the method: Wistar rats were selected and randomly grouped into 10 rats in each group. The learned helplessness test model was used in which the corresponding dose of extracts shown as in Table 5 were administered orally by gavage. The positive control was venlafaxine. Continuous administered for 7 days, one time per day. 24 h after the last oral administration, a conditional avoidance test is implemented.

SMILES strings stand for the structures.

Consider `CN1C(=O)CN=C(c2ccccc2)c2cc(Cl)ccc21` [Diazepam, diazepam], for which, in the experiment on mice, the Number of shuttles was 14.23 ± 1.06 and the “Time (residence time in the light box)” value is given as 121.23 ± 8.12.
Take `COc1ccc(C(CN(C)C)C2(O)CCCCC2)cc1` (stereo not drawn) [Venlafaxine, venlafaxine]: in the experiment on Kunming mice [1], the “Immobility time within 6 min” value is listed as 60.9 ± 38.5 s. For the same compound, the “Stop motion within 5 min” value with Kunming mice [2] turned out to be 75.8 ± 19.4 s. In addition, the Escape latency with Wistar rats (30 mg/kg/d oral gavage, 7 days, 24 h after last dose, u test n = 10, x ± SD) stood at 14.15 ± 12.32 s. Besides, the “escape latency of the rats, effect in words” value in the experiment with Wistar rats (doses of 10, 5, 2.5 mg/kg/d, compared with the model control group P<0.01) was “significantly shortened the escape latency”.

Values taken from patent US11571453B2, “Piper laetispicum extract and preparation method therefor and use thereof” (SUZHOU YI-HUA BIOMEDICAL TECHNOLOGY CO., LTD, priority 2017, dated 2023).
